The results in this text go back to publication PMC12040169 (PLOS Biology, 2025).

One series in a line: in vitro. Particulars: human, hela cells, % viability.
Turning to `Brc1ccc2c(c1)COC1(CN3CCC1CC3)O2` (centres unmarked) [CBK105268], the viability – broadly, a read-out of living cells in per cent, often relative to untreated cells – at 28.5 h, 10 µM worked out at 107%.

As for `CC(=O)NCCSc1nccnc1NC(C)C` [CBK105289], the viability at 28.5 h, 10 µM is 92.8%.

With `CC(=O)NCCSc1cncc(NC(C)C)n1` [CBK105291], the viability at 28.5 h, 10 µM amounted to 84.9%.

Turning to `CC(C)Nc1cncc(SCCN(C)C)n1` [CBK105292], the viability at 28.5 h, 10 µM came to 90.6%.

For the compound `CC(=O)NCCSc1ncccc1C(F)(F)F` [CBK105296], the viability at 28.5 h, 10 µM was found to be 101%.

As to `CC(=O)NCCSc1nccc(C(F)(F)F)n1` [CBK105301], the viability at 28.5 h, 10 µM is 102%.

For `FC(F)(F)c1ccnc(SCCc2ccncc2)n1` [CBK105302], the viability at 28.5 h, 10 µM came to 95.3%.

For the compound `CC(=O)NCCSc1nc2ccccc2nc1C(F)(F)F` [CBK105303], the viability at 28.5 h, 10 µM worked out at 89.6%.

Turning to `Cc1[nH]nc(O)c1Cc1ccccc1F` [CBK105306], the viability at 28.5 h, 10 µM is 97.1%.

Take `COc1ccc(-c2ccc3c(c2)COC2(CCCNC2)O3)c(OC)c1` (centres unmarked) [CBK105316]: the viability at 28.5 h, 10 µM is 103%.

Turning to `Cc1onc(-c2ccccc2)c1NC(=O)Nc1cc2ccccc2c(Br)n1` [CBK105489], the viability at 28.5 h, 10 µM is 96.5%.

Take `O=C(Nc1ccc2c(c1)OCO2)Nc1c(Br)cnc2ncccc12` [CBK105596]: the viability at 28.5 h, 10 µM is 93.4%.

For the compound `CC1(OCc2ccccc2)SC(NC2CCCCCC2)=NC1=O` (centres unmarked) [CBK105606], the viability at 28.5 h, 10 µM is 82.8%.

Take `CC(=O)NCCSc1nccnc1N1CCCC1` [CBK105619]: the viability at 28.5 h, 10 µM came out at 91.7%.

In the case of `CCCCNC(=O)Nc1ncc(-c2ccc(C#N)cc2)nc1-c1ccc(C(=O)N2CCOCC2)cc1` [CBK105766], the viability at 28.5 h, 10 µM was determined as 91.1%.

For `Cc1ccccc1NC(=O)Nc1cccc(F)c1` [CBK105831], the viability at 28.5 h, 10 µM is 88.3%.

As to `Cc1ccccc1NC(=O)NCc1ccccc1F` [CBK105832], the viability at 28.5 h, 10 µM turned out to be 97.4%.

On to `COc1ccc(Cn2nc(-c3nc(C)no3)c3ccccc32)cc1` [CBK105834], for which the viability at 28.5 h, 10 µM amounted to 90.7%.

`CCNC(=O)Nc1nn(Cc2ccc(OC)cc2)c2ccccc12` [CBK105837]: the viability at 28.5 h, 10 µM came out at 94.6%.

As to `COCCNc1nc(-c2ccccc2)ccc1C(=O)Nc1cccc(OC)c1` [CBK105886], the viability at 28.5 h, 10 µM came to 98.1%.

Consider `COCCNc1nc(-c2cc(C(C)C)ccc2OC)ccc1C(=O)Nc1cccc(OC)c1` [CBK105904], for which the viability at 28.5 h, 10 µM is 96.9%.

As for `COCCNc1nc(-c2ccccc2)ccc1C(=O)N(C)CCN(C)C` [CBK105913], the viability at 28.5 h, 10 µM was determined as 99.3%.

`COCCNc1nc(-c2ccc(C(C)=O)s2)ccc1C(=O)N(C)CCN(C)C` [CBK105914]: the viability at 28.5 h, 10 µM turned out to be 116%.

In the case of `COCCNc1nc(-c2cccc(N(C)C)c2)ccc1C(=O)NCCc1ccccn1` [CBK105938], the viability at 28.5 h, 10 µM is 90.7%.

Regarding `COCCNc1nc(-c2ccc(N3CCOCC3)cc2)ccc1C(=O)N1CCN(C)CC1` [CBK105943], the viability at 28.5 h, 10 µM stood at 111%.

On to `COCCNc1nc(-c2ccsc2)ccc1C(=O)N1CCN(C)CC1` [CBK105948], for which the viability at 28.5 h, 10 µM came to 112%.

Turning to `COCCNc1nc(-c2ccccc2OC)ccc1C(=O)N1CCN(C)CC1` [CBK105950], the viability at 28.5 h, 10 µM worked out at 88.7%.

Regarding `COCCNc1nc(-c2ccccc2OC)ccc1C(=O)NCCNC(C)=O` [CBK105974], the viability at 28.5 h, 10 µM came out at 100%.

Regarding `CNC(=O)c1ccc(-c2cc(OC)c(OC)c(OC)c2)nc1NCCOC` [CBK105997], the viability at 28.5 h, 10 µM came out at 94.1%.

With `COc1ccc(-c2ccc(C(=O)N(C)C)c(N3CCN(C(=O)c4ccco4)CC3)n2)cc1` [CBK106020], the viability at 28.5 h, 10 µM was 86.3%.

As for `COCCNC(=O)c1ccc(-c2ccccc2)nc1N(C)C` [CBK106049], the viability at 28.5 h, 10 µM turned out to be 99.8%.

On to `COCCNC(=O)c1ccc(-c2ccc3c(c2)OCO3)nc1N(C)C` [CBK106050], for which the viability at 28.5 h, 10 µM is 101%.

On to `COCCNC(=O)c1ccc(-c2ccccc2OC)nc1N(C)C` [CBK106052], for which the viability at 28.5 h, 10 µM came to 92%.

Turning to `COCCNC(=O)c1ccc(-c2cc(C(C)C)ccc2OC)nc1N(C)C` [CBK106061], the viability at 28.5 h, 10 µM worked out at 103%.

On to `CN(C)CCN(C)C(=O)c1ccc(-c2cc(C(F)(F)F)cc(C(F)(F)F)c2)nc1N(C)C` [CBK106069], for which the viability at 28.5 h, 10 µM stood at 97%.

`COc1ccccc1-c1ccc(C(=O)N(C)CCN(C)C)c(N(C)C)n1` [CBK106075]: the viability at 28.5 h, 10 µM was found to be 88.5%.

Regarding `COc1cc(-c2ccc(C(=O)N(C)CCN(C)C)c(N(C)C)n2)cc(OC)c1OC` [CBK106076], the viability at 28.5 h, 10 µM was found to be 109%.

For the compound `CN(C)CCN(C)C(=O)c1ccc(-c2ccco2)nc1N(C)C` [CBK106078], the viability at 28.5 h, 10 µM stood at 84.1%.

With `CN(C)CCN(C)C(=O)c1ccc(-c2cccc(Cl)c2Cl)nc1N(C)C` [CBK106082], the viability at 28.5 h, 10 µM came out at 94.1%.

`Cc1ccccc1-c1ccc(C(=O)N(C)CCN(C)C)c(N(C)C)n1` [CBK106090]: the viability at 28.5 h, 10 µM is 96%.

Turning to `CN(C)c1nc(-c2cc(C(F)(F)F)cc(C(F)(F)F)c2)ccc1C(=O)NCc1ccco1` [CBK106094], the viability at 28.5 h, 10 µM is 89.5%.

Take `CN1CCN(C(=O)c2ccc(-c3ccco3)nc2N(C)C)CC1` [CBK106121]: the viability at 28.5 h, 10 µM was 94.4%.

For `COc1ccc(C(C)C)cc1-c1ccc(C(=O)N2CCN(C)CC2)c(N(C)C)n1` [CBK106130], the viability at 28.5 h, 10 µM came to 88%.

As for `CN1CCN(C(=O)c2ccc(-c3cccc(C(F)(F)F)c3)nc2N2CCOCC2)CC1` [CBK106194], the viability at 28.5 h, 10 µM is 94%.

Take `Cc1csc(-c2ccc(C(=O)N3CCN(C)CC3)c(N3CCOCC3)n2)c1` [CBK106195]: the viability at 28.5 h, 10 µM amounted to 90.8%.

Consider `Cc1ccc(C(=O)N2CCN(C)CC2)c(N2CCOCC2)n1` [CBK106199], for which the viability at 28.5 h, 10 µM came to 100%.

`COc1ccc2[nH]cc(CCNC(=O)c3ccc(C)nc3N3CCOCC3)c2c1` [CBK106203]: the viability at 28.5 h, 10 µM amounted to 108%.

As to `CNC(=O)c1ccc(-c2ccco2)nc1N1CCOCC1` [CBK106212], the viability at 28.5 h, 10 µM was 108%.

On to `CNC(=O)c1ccc(-c2cccc(Cl)c2Cl)nc1N1CCOCC1` [CBK106215], for which the viability at 28.5 h, 10 µM amounted to 109%.

Regarding `Cc1ccc(C(=O)Nc2cc(C)nn2C)c(N2CCOCC2)n1` [CBK106221], the viability at 28.5 h, 10 µM is 104%.

Take `COc1cccc(NC(=O)c2ccc(-c3ccsc3)nc2NCC2CC2)c1` [CBK106227]: the viability at 28.5 h, 10 µM is 90.5%.

Consider `COCCNC(=O)c1ccc(-c2ccccc2)nc1NCC1CC1` [CBK106242], for which the viability at 28.5 h, 10 µM was determined as 92%.

Consider `COCCNC(=O)c1ccc(-c2ccccc2OC)nc1NCC1CC1` [CBK106246], for which the viability at 28.5 h, 10 µM is 103%.

`COCCNC(=O)c1ccc(-c2cc(C)cs2)nc1NCC1CC1` [CBK106259]: the viability at 28.5 h, 10 µM came out at 106%.

In the case of `COc1ccccc1-c1ccc(C(=O)N(C)CCN(C)C)c(NCC2CC2)n1` [CBK106269], the viability at 28.5 h, 10 µM worked out at 96.3%.

On to `CNC(=O)c1ccc(-c2ccc(C(C)=O)s2)nc1NCC1CC1` [CBK106307], for which the viability at 28.5 h, 10 µM turned out to be 95.3%.

Regarding `CC(=O)Nc1nc(-c2ccccc2C)ccc1C(=O)NC1CCCCC1` [CBK106327], the viability at 28.5 h, 10 µM was 99%.

Consider `CC(=O)Nc1nc(-c2ccccc2C)ccc1C(=O)N(C)C` [CBK106328], for which the viability at 28.5 h, 10 µM turned out to be 94.6%.

Still in this series, the particulars now being: human, hela cells, % viability, bulk resorufin, single well.
As for `CC(C)(C)OC(=O)N1CCC2(CC1)OCc1cc(-c3cccc(OCC(=O)N4CCOCC4)c3)ccc1O2` [CBK105254], the viability at 28.5 h, 10 µM was determined as 96.8%.
